Experimental findings from patent publication US11059778B2, “Cannabinoid receptor CB2 ligand 4-(aminomethyl)-N, N-dialkylanilines” (UNIVERSITY OF PITTSBURGH—OF THE COMMONWEALTH SYSTEM OF …, priority 2015, dated 2021) are described below.

Test [1] deals with RANKL-induced osteoclast differentiation of C57BL/6 mouse bone marrow cells. Description: In-vitro osteoclast formation assay (RANKL-induced, TRAP staining). It is filed as cell-based. As to conditions: for effect on RANKL-induced osteoclast formation (in words): RANKL 100 ng/mL, M-CSF 30 ng/mL, concentration series up to 10 μM, FIG. 5; for inhibition at 10 µM: Mus musculus, Osteoclast, read-out: inhibition rates of osteoclast formation. Here is the method: FIGS. 5A and 5B relate to […]. Anti-osteoclastogenesis activity of the synthesized CB2 ligands. […] FIG. 5B: BM cells were seeded at a density of 2×10^5 cells/well in 96-well plates and treated with or without RANKL (100 ng/mL) and M-CSF (30 ng/mL). CB2 compounds were added at the indicated concentrations for 10 days and stained for TRAP expression. Data is the mean of three experiments carried out in triplicates. (B) Microscopic photographs of cells for compound 15 (magnification 100×).
Bone marrow (BM) cells were obtained from the tibia and femur of 4- to 6-week old C57BL/6 mice. To examine the effects of our selective CB2 ligands, BM cells were seeded at 2×10^5 cells/well in 96-well plates in 100 μIL/well Alpha-MEM media (Gibco Laboratories, Grand Island, N.Y.) containing 15% fetal bovine serum (FBS) (Gibco Laboratories, Grand Island, N.Y.), 30 ng/mL M-CSF (R&D Systems, USA), and 100 ng/mL RANKL (ProsPec, East Brunswick, N.J.). Plates were cultured for 7-10 days. Half media was changed every third day with or without CB2 ligands. At the end of the experiment, cells were fixed and stained with tartrate-resistant acid […] (TRAP) (Sigma-Aldrich, USA), according to manufacturer's protocol. TRAP-positive cells with ≥3 nuclei were counted as osteoclasts ((a) Feng, R., et al., SDX-308, a nonsteroidal anti-inflammatory agent, inhibits NF-kappaB activity, resulting in strong inhibition of osteoclast formation/activity and multiple myeloma cell growth. Blood 2007, 109 (5), 2130-8; (b) Yu, M., et al., Curcumol suppresses RANKL-induced osteoclast formation by attenuating the JNK signaling pathway. Biochem Biophys Res Commun 2014, 447 (2), 364-70; (c) Feng, R., et al., KD5170, a novel mercaptoketone-based histone deacetylase inhibitor, exerts antimyeloma effects by DNA damage and mitochondrial signaling. Mol Cancer Ther 2008, 7 (6), 1494-505.).

For test [2], the target named is T1, CHO cells expressing human CB2 receptors (Homo sapiens, UniProt P34972).
T1 construct: expressed in transfected cells; host or cells: CHO cells, stably transfected
The test is described as follows: cell-based LANCE cAMP assay. The following applies: forskolin-stimulated, RO-20-1724 present, FIG. 4. Here is the method: FIG. 4 relates to cAMP Assay Results. LANCE signal of CB2 ligands. Stably transfected CHO cells expressing human CB2 receptors were utilized to carry out the LANCE cAMP assay. […] Data is mean±SEM of all experiments of two or more performed in triplicate.
(§1) The antibodies are labeled with Alexa Fluor dye that is sensitive to energy emissions. Briefly, the cell-based LANCE cAMP assays were performed on 384-well ProxiPlates using CHO cells stably expressing the CB2 receptors at density of 2×10^3 cells per well in 5 μL of RPMI-1640 medium (Gibco Laboratories, Grand Island, N.Y.) containing 1% dialyzed FBS, 25 mM HEPES, […], and 200 μg/ml of […]. After incubation overnight, 2.5 μL of cAMP antibody and RO20-1724 (a phosphodiesterase inhibitor) in stimulation buffer (DPBS 1×, containing 0.1% BSA) was added to each well, followed by the addition of 2.5 μL of the compound plus the forskolin complex (an adenyl cyclase activator). After incubation at room temperature for 45 minutes, 10 μL of detection buffer was added into each well. The plate was then incubated at room temperature for 1 hour. The plate was then measured in a Synergy H1 hybrid reader (BioTek) with excitation at 340 nm and emission at 665 nm. The results represent at least two independent experiments each in triplicates. EC50 values were determined by nonlinear regression dose-response curve (GraphPad Prism 5).
as §1, with “Cyclic AMP levels were measured by performing the cell-based LANCE cAMP-384 kit assay (PerkinElmer) as previously described 13-14. The assay is based on the competition between the europium-labeled cAMP tracer complex and sample cAMP for binding sites on cAMP-specific antibodies. The antibodies” for “The antibodies”
The LANCE cAMP assay was carried out to measure the functional activities of our synthesized CB2 selective ligands as previously described 14. Briefly, the assay was performed on 384-well plates using CHO cells stably expressing CB2 receptors in the presence of phosphodiesterase inhibitor, RO-20-1724 and adenyl cyclase activator, forskolin.
(In general: TR-FRET usually uses a lanthanide donor and a delayed reading to cut background.)

“Also recorded” adds a separate entry of the source. Bounds are passed on as bounds.

T1 sequence (P34972 whole entry): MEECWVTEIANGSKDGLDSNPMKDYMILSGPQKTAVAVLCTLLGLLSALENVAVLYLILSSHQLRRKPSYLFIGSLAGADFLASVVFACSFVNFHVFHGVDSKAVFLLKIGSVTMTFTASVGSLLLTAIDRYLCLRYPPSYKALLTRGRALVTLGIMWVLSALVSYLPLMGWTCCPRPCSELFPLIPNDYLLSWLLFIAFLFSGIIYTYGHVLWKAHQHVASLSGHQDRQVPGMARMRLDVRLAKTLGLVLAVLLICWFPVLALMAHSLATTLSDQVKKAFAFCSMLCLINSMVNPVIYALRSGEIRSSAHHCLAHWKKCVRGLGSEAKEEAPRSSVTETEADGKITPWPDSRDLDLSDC

As to `CCN(CC)c1ccc(CN(Cc2cc(OC)c(OC)c(OC)c2)C(=O)c2cccs2)cc1` [Compound 11, N-(4-(diethylamino)benzyl)-N-(3,4,5-trimethoxybenzyl)thiophene-2-carboxamide], the “effect on RANKL-induced osteoclast formation (in words)” value (“effect” for short) in test [1] is reported as “induction of osteoclast formation at higher doses; also recorded: low effect in inducing the osteoclast formation at higher doses”. Besides, in test [2], the “CB2 functional activity (LANCE cAMP signal)” value (“CB2 functional activity” for short) is “CB2 selective agonist”.

With `CCN(CC)c1ccc(CN(Cc2cc(OC)c(OC)c(OC)c2)S(=O)(=O)/C=C/c2ccccc2)cc1` [Compound 15, (E)-N-(4-(diethylamino)benzyl)-2-phenyl-N-(3,4,5-trimethoxybenzyl)ethene-1-sulfonamidebenzenesulfonamide], in test [1], the inhibition (usually the change of the read-out against control, counted positive when it falls) at 10 µM was above 95% and the “effect” value was “concentration-dependent inhibition of osteoclast formation; also recorded: inhibited the RANKL-induced osteoclast differentiation in a dose-dependent manner”. In addition, the “CB2 functional activity” value in test [2] is “inverse agonists”.

For `CCN(CC)c1ccc(CN(Cc2cc(OC)c(OC)c(OC)c2)S(=O)(=O)c2ccc(C=O)cc2)cc1` [Compound 18, N-(4-(diethylamino)benzyl)-4-formyl-N-(3,4,5-trimethoxybenzyl)benzenesulfonamide], in test [1], the inhibition at 10 µM was above 95% and the “effect” value is “concentration-dependent inhibition of osteoclast formation; also recorded: inhibited the RANKL-induced osteoclast differentiation in a dose-dependent manner”. Further, the “CB2 functional activity” value in test [2] is “inverse agonists”.
